Patent US20230098111A1, “COMPOSITIONS AND METHODS TO TREAT NEUROLOGICAL DISEASES” (University of Southern California, priority 2020, published 2023)

Tests used:
C9ORF72 FTD iNs = assay: Survival of C9ORF72 FTD iNs; format: cell-based, human; conditions: DMSO or apilimod; scrambled or PIKFYVE ASOs
From the text: (§1) (A) Survival of C9ORF72 iNs with DMSO or apilimod. Log-rank test, 100 iNs per group. […] Log-rank test, 100 iNs per group. […] Mean+/−s.e.m. Kruskal-Wallis Test.
(A, B) Survival of C9-FTD iNs treated with DMSO and Apilimod (A) or Apilimod+GW4869 (exocytosis blocker) (B). Log-rank test. 100 iNs per group. iNs quantified from 3 independent replicates per group.
Mutations in MAPT cause FTD with tau aggregates. To determine if iNs from FTD patients display neurodegenerative phenotypes, an established method to generate cortical neurons from iPSCs by forced expression of NGN2 was used. 3 FTD patient iPSC lines harboring a MAPTV337M mutation and their CRISPR-edited isogenic controls from a published cell bank were utilized. Neurons from MAPT-mutant iPSCs display increased phosphorylated and oligomeric tau, similar to post-mortem patient tissue (FIG. 18A). […] Thus, MAPT iNs display key features of FTD with tau pathology.
Thus, C9ORF72 iNs provide a robust model of FTD.
PIKFYVE inhibition rescues neurodegeneration through secretory autophagy.

TARDBP iNs = assay: Survival of TARDBP FTD iNs; format: cell-based, human; conditions: DMSO or apilimod
From the text: as §1
Thus, a collection of MAPT, C9ORF72, and TARDBP FTD lines that provide relevant models of FTD were established.

[1] = system: C9ORF72 dipeptide repeat proteins; assay: DPR levels in C9ORF72-BAC mice; format: in vivo
Description: DRP aggregates (Poly(GR) red) accumulate in the cells (white outline) of C9-BAC mice.
(A) Mass spectrometry analysis of Optineurin (OPTN) levels in the cerebrospinal fluide (CSF) of mice 2 hours after direct intracerebroventral injection of a vehicle control or apilimod. n=3 mice per group. The ratio of Optineurin in the CSF of apilimod:vehicle-injected mice is shown. (B) Poly(GR)+ DPR punctae in wild-type or C9ORF72 mice treated with intracerebroventricular injection of apilimod for 48 hours. Mean+/−s.e.m. Data points are individual neurons taken across 3 mice per group. One-way ANOVA. […] Unpaired t-test. (D) Pikfyve qRT-PCR of whole brain. n=3 mice per group at postnatal day 7. Unpaired t-test. (E) Gait impairment scoring in wild-type (WT) and TDP-43 homozygous mice treated with a negative control (NC) ASO or Pikfyve ASO at postnatal day 1. Mean+/−s.e.m. Unpaired t-test at each time point between the negative control and Pikfyve ASO conditions for TDP-43 mice. A score of 0 indicates no phenotype and 4 indicates the most severe phenotype. (F) Vehicle or GW4869 were delivered by intraperitoneal injection every 48 h starting from day 6 in negative control and Pikfyve ASO-treated mice. Mean+/−s.e.m. One-way ANOVA at each time point between the four conditions. *p<0.05, **p<0.01, ***p<0.001, ****p<0.0001.
PIKFYVE inhibition rescues neurodegeneration in vivo. […] Since TARDBP overexpressing mice show motor deficits and neurodegeneration, we used TARDBP mice to test the efficacy of Pikfyve suppression.
Determining whether PIKfyve-targeting ASOs can reverse ALS disease progression in vivo. To determine if PIKfyve-targeting ASOs can reverse ALS disease processes in vivo, can PIKfyve ASOs lower levels of C9ORF72 dipeptide repeat proteins in mice. Dipeptide repeat proteins are generated from the C9ORF72 repeat expansion by repeat-associated non-AUG-dependent translation and are neurotoxic.
To determine if ASO-mediated Pikfyve suppression lowers C9ORF72 poly(GR) levels in mice, Pikfyve ASOs were injected into the hippocampus of adult C9ORF72-BAC mice, which harbor a C9ORF72 repeat expanded transgene and accumulate poly(GR)+ aggregates in hippocampal neurons.

TDP-43 = assay: Nuclear:cytoplasmic TDP-43 in C9ORF72 ALS/FTD iMNs; format: cell-based, human; conditions: DMSO or apilimod
[2] = Apilimod pharmacokinetics (CSF concentration after oral dosing); format: in vivo
From the text: All doses rescue iMN survival.
Testing the safety of ASO-mediated suppression of PIKFYVE as a therapeutic strategy. […] While it may be possible to generate a suitable PIKFYVE inhibitor using medicinal chemistry, this is an expensive and time-consuming endeavor. In contrast to small molecules, ASOs provide a facile approach to targeting the CNS because they can be injected directly into the spinal cord, achieve sustained target engagement throughout the CNS, and are less likely to cause peripheral toxicity. Thus, ASO-mediated PIKFYVE suppression was tested as a therapeutic approach for ALS, FTD, and Alzheimer's disease.

[3] = system: Drosophila larvae expressing GR dipeptide repeats; assay: NMJ degeneration in poly(GR) Drosophila ALS model; format: in vivo
Description: Apilimod (30 μM) was fed to control and larvae expressing 100× (A,C) or 36× (B,D) GR dipeptide repeats. […] Unpaired t-test. **p<0.01, ***p<0.001.
Testing the efficacy of PIKFYVE suppression in vivo. The fruit fly Drosophila is a powerful genetic system for studying the effects of ALS gene products on neuromuscular junction (NMJ) function. […] It was shown that overexpression of wild-type or mutant TDP-43, SOD1, or the C9ORF72 repeat expansion in Drosophila larvae causes neurodegeneration and an increase in the time required for larvae to right themselves after being turned on their dorsal side, reflecting a decrease in motor function (FIG. 30A-C). […] Overexpression of the C9ORF72 DPR poly(GR)(36 or 100 repeats) causes a dramatic reduction in synaptic arborization, active zone number, and synaptic strength at NMJs (FIG. 31A-D).

sporadic ALS iMNs = assay: Survival of sporadic ALS iMNs
From the text: (A) Survival of control (CTRL) and C9ORF72 ALS/FTD patient (C9-ALS) iMNs with a 12-hour pulse treatment of excess glutamate shown for each individual line separately. iMNs quantified from 3 independent iMN conversions per line. (B-D) Immunofluorescence analysis of total TDP-43 (B) and quantification of the ratio of nuclear to cytoplasmic TDP-43 in control, C9-ALS (C), or sporadic ALS (D) iMNs. MNs from 2 controls and 2 C9-ALS patients (C) or 4 sporadic ALS patients (D) were quantified. n=30 (controls), 30 (C9-ALS/FTD), or 36 (sporadic) iMNs per line per condition from 2 biologically independent iMN conversions of 2 control, 2 C9-ALS/FTD, or 4 sporadic ALS lines were quantified. Each gray circle represents a single iMN. Median±interquartile range. Unpaired Mann-Whitney test. Scale bars: 5 μm. Dotted lines outline the nucleus and cell body. (E) Survival of control and sporadic iMNs with glutamate treatment. iMNs quantified from 3 independent iMN conversions per line. For iMN survival experiments, significance was measured by 2-sided log-rank test using the entire survival time course.
(B) Survival of C9-ALS/FTD iMNs with DMSO or apilimod. (C) Survival of sporadic ALS induced motor neurons (iMNs) with DMSO or apilimod. (D) Survival of C9-ALS/FTD iMNs with a scrambled ASO or PIKFYVE ASOs, 100 iMNs per group. […] Unpaired t-test. iMN survival experiments analyzed by log-rank test. […]

[4] = injection of apilimod into the hippocampus
[5] = apilimod 30 μM fed to larvae expressing poly(GR)
[6] = apilimod 30 μM fed to larvae expressing poly(GR), listed as Apilimod

Description for control iMNs: Drug screening iMNs from both C90RF72 and sporadic ALS patients. […] Chemical screens were then performed to search for targets that can rescue the degeneration of iMNs from multiple patients. 2000 approved drugs and 1800 target-annotated tool compounds were screened on C9ORF72 ALS/FTD iMNs.

Cc1cccc(/C=N/Nc2cc(N3CCOCC3)nc(OCCc3ccccn3)n2)c1 [apilimod]
survival of C9ORF72 iNs (C9ORF72 FTD iNs): also rescued C9ORF72 | survival of TARDBP iNs (TARDBP iNs): potently rescued | levels of poly(GR) in C9ORF72-BAC mice [1, 4]: reduced levels | levels of poly(PR) in C9ORF72-BAC mice [1, 4]: reduced levels | DPR levels in C9ORF72-BAC mice ([1]; intracerebroventricular injection of apilimod): lowered DPR levels | nuclear localization of TDP-43 in C9ORF72 iMNs (TDP-43): rescued the nuclear localization of TDP-43 | metabolic stability in vivo ([2]; in vivo): poor metabolic stability in vivo | brain exposure ([2]; oral dosing at 100 mg/kg, CSF concentration): does not achieve sufficient brain exposure | NMJ degeneration ([3]; apilimod 30 μM): suppresses NMJ degeneration | NMJ boutons [3, 5]: More active zones and NMJ boutons | number of active zones at NMJ [3, 5]: More active zones | synaptic strength (EPSP amplitude) [3, 5]: enhanced synaptic strength | number of active zones at NMJ [3, 6]: partially rescues | synaptic strength (EPSP amplitude) [3, 6]: partially rescues | control iMN survival (control iMNs): did not | sporadic ALS iMN survival (sporadic ALS iMNs): one of the most potent
